The source of these data is patent US9687558B2, “Antitumoral bioconjugates of hyaluronic acid or its derivatives obtained by indirect chemical conjugation, and their use in the pharmaceutical field” (priority 2005, dated 2017).

In series [1] the test system is colic adenocarcinoma HT29 cells. Description: Cytotoxicity test in vitro on HT29 cells, MTT colorimetric assay. Conditions: 48 hours of contact, HA derivatives in 5% glucosated solution, SN38 in DMSO. The series is classed as cell-based. On the procedure: Evaluation of the Antiproliferative Activity of the Ester Conjugate HA/SN38 having a Substitution Degree Equal to 10% and 15%, on the Cellular Line of Colic Adenocarcinoma HT29
Aliquots of the derivatives obtained from examples 1 and 2 are characterized by means of a cytotoxicity test in vitro on a line of colic tumoral cells called HT29. The comparison was effected with SN38 dissolved in DMSO. The HA derivatives are solubilized in a glucosated solution at 5% at a concentration of 5 mg/ml. The test is effected by depositing on a plate with 96 cavities, 3000 cells per cavity; after 24 hours of incubation at 37° C., the cells are put in contact with the solutions and after a further 48 hours the cell vitality is determined by means of a MTT colorimetric assay (Dezinot F. et al., J. Immunol Methods, 1986, 22(89):271-277).
The proliferation curves referring to the two ester conjugates of HA are shown in the graphs (on the left the cytotoxic activity of the derivative at 15%, on the right that at 10%), see FIG. 4.
By comparing the data of EC50 with SN38 in dimethylsulfoxide (DMSO) the following results are obtained: […]
In general terms: Formazan colour is commonly taken as a measure of viable cells.

The conditions of series [2]: Mathijssen R H et al., Clin Cancer Res, 2001; cited from earlier work.
Series [3] deals with DHD/K12 cells (MDR colon-rectum adenocarcinoma model). Description: Cytotoxicity test in DHD/K12 cells, LIVE/DEAD Cell Vitality Assay. In kind it is cell-based, rat. Particulars: 0.25 μM, 48 hours of treatment.
Experimental: The cellular line used derives from rats of the BDIX strain treated with 1,2-dimethylhydrazine.
In order to evaluate the degree of cellular vitality the LIVE/DEAD Cell Vitality Assay (Molecular Probes) was used, which allows metabolically active cells to be distinguished from dead cells: the latter emit green fluorescence at a nuclear level whereas live cells emit red fluorescence localized on the cellular membrane and in the cytoplasm. After colouring, the cells were analyzed using a confocal microscope and the percentage of live/dead cells was evaluated by counting a minimum of 500 live or dead cells per sample.

As for `CCc1c2c(nc3ccc(O)cc13)-c1cc3c(c(=O)n1C2)COC(=O)[C@]3(O)CC` [SN38 in DMSO, SN38], a half-maximal response in series [1] (EC50) required 5 nM. The “antitumoral activity relative to commercial prodrug (Irinotecan)” value in series [2] is listed as 100 to 1000 times. Turning to `COc1cccc2c1C(=O)c1c(O)c3c(c(O)c1C2=O)C[C@@](O)(C(=O)CO)C[C@@H]3O[C@H]1C[C@H](N)[C@H](O)[C@H](C)O1` [doxorubicin], the “cytotoxic effect at low concentration” value in series [3] is recorded as “does not have any cytotoxic effect”.

The EC50 is the concentration needed to bring the measured effect to its halfway point. High values mean weaker potency, low ones greater potency.
